Experimental data from paper PMC3928078, “Ponatinib efficiently kills imatinib-resistant chronic eosinophilic leukemia cells harboring gatekeeper mutant T674I FIP1L1-PDGFRα: roles of Mcl-1 and β-catenin” (Molecular Cancer, 2014).

Molecular target: T1, FIP1L1-PDGFRα (Homo sapiens, UniProt P16234, T674I, form not given)
T1 construct: gene PDGFRA; with Pre-mRNA 3'-end-processing factor FIP1
Format: cell-based
Conditions: 24 h, 1000 nM, positive control; gatekeeper mutant; stated gain (imatinib resistance)

T1 sequence (P16234 550-1089 T674I limits assumed, form open): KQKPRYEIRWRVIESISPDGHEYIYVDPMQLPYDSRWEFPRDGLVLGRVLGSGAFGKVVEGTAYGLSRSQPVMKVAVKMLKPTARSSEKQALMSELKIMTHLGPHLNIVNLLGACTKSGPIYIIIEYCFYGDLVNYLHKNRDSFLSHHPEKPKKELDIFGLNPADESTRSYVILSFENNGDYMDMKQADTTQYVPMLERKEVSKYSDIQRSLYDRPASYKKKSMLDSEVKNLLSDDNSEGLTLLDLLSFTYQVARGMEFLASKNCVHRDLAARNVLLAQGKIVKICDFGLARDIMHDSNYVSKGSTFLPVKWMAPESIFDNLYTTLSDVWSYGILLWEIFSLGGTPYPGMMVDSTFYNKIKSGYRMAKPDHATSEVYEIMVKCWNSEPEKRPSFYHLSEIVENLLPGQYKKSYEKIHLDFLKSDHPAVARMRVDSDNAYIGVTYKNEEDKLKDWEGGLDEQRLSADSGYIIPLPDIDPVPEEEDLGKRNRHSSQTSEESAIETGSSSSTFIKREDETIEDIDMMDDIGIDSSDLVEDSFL
T1 sequence (Q6UN15 whole entry partner, form open): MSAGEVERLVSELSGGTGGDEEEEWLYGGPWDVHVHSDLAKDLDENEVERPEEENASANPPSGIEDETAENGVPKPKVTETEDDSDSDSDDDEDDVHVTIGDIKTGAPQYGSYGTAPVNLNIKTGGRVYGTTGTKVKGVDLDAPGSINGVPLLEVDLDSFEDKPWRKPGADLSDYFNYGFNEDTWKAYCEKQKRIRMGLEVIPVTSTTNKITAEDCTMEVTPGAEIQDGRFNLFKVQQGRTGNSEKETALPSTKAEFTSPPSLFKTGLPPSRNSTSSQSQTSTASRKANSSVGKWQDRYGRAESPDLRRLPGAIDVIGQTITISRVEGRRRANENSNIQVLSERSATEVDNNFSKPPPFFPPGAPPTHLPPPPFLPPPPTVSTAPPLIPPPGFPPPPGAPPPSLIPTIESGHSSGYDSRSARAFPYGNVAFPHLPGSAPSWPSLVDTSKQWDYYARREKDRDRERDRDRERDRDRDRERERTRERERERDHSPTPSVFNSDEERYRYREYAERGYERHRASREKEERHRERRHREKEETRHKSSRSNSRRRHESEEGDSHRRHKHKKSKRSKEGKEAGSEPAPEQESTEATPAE

CNC(=O)c1cc(Oc2ccc(NC(=O)Nc3ccc(Cl)c(C(F)(F)F)c3)cc2)ccn1 [sorafenib]
immunoblot of phospho-PDGFRα (Y1018) in BaF3 cells: The phosphorylation of T674I FIP1L1-PDGFRα was altered by sorafenib but not imatinib
